Test results: the supplement of paper PMC10307832

How the values were obtained:
Experiment in all cases: relative viability (nuclei count vs DMSO), 5 days (fraction); higher = more cells survive
KIN001-266 + Tozasertib = compound: CCN1CCC(CC1)N2C=C(N=N2)CNC3=CC4=C(C(=CN=C4C(=C3)Cl)C#N)NC5=CC(=C(C=C5)F)Cl [KIN001-266] + Cc1cc(Nc2cc(N3CCN(C)CC3)nc(Sc3ccc(NC(=O)C4CC4)cc3)n2)n[nH]1 [Tozasertib] (partner 0.1 µM)
Procedure, shortened: (§1)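 Each reported value is a median over duplicate plates. It expresses relative viability: treated-well nuclei count divided by vehicle-well nuclei count. Lung cancer cell lines in 1536-well plates were dosed by pin tool a day after seeding, alone with one drug or with a fixed anchor-drug dose plus five library-drug doses (not always all listed) in √10 steps, and nuclei were counted after 5 days.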

KIN001-266 + Dasatinib = compound: CCN1CCC(CC1)N2C=C(N=N2)CNC3=CC4=C(C(=CN=C4C(=C3)Cl)C#N)NC5=CC(=C(C=C5)F)Cl [KIN001-266] + Cc1nc(Nc2ncc(C(=O)Nc3c(C)cccc3Cl)s2)cc(N2CCN(CCO)CC2)n1 [Dasatinib] (partner 0.075 µM)
Procedure, shortened: as §1

KIN001-266 + Luminespib = compound: CCN1CCC(CC1)N2C=C(N=N2)CNC3=CC4=C(C(=CN=C4C(=C3)Cl)C#N)NC5=CC(=C(C=C5)F)Cl [KIN001-266] + CCNC(=O)c1noc(-c2cc(C(C)C)c(O)cc2O)c1-c1ccc(CN2CCOCC2)cc1 [Luminespib] (partner 0.01 µM)
Procedure, shortened: as §1

KIN001-266 + Phenformin = compound: CCN1CCC(CC1)N2C=C(N=N2)CNC3=CC4=C(C(=CN=C4C(=C3)Cl)C#N)NC5=CC(=C(C=C5)F)Cl [KIN001-266] + N=C(N)NC(=N)NCCc1ccccc1 [Phenformin] (partner 250 µM)
Procedure, shortened: as §1

KIN001-266 + OSI-027 = compound: CCN1CCC(CC1)N2C=C(N=N2)CNC3=CC4=C(C(=CN=C4C(=C3)Cl)C#N)NC5=CC(=C(C=C5)F)Cl [KIN001-266] + COc1cccc2cc(-c3nc([C@H]4CC[C@H](C(=O)O)CC4)n4ncnc(N)c34)[nH]c12 [OSI-027] (partner 0.5 µM)
Procedure, shortened: as §1

KIN001-266 + Foretinib = compound: CCN1CCC(CC1)N2C=C(N=N2)CNC3=CC4=C(C(=CN=C4C(=C3)Cl)C#N)NC5=CC(=C(C=C5)F)Cl [KIN001-266] + COc1cc2c(Oc3ccc(NC(=O)C4(C(=O)Nc5ccc(F)cc5)CC4)cc3F)ccnc2cc1OCCCN1CCOCC1 [Foretinib] (partner 0.25 µM)
Procedure, shortened: as §1

KIN001-266 = compound: CCN1CCC(CC1)N2C=C(N=N2)CNC3=CC4=C(C(=CN=C4C(=C3)Cl)C#N)NC5=CC(=C(C=C5)F)Cl [KIN001-266]
Procedure, shortened: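 Viability here means nuclei in treated wells divided by nuclei in vehicle wells, reported as the median across plates. Only plates with control CV below 25% and at least one doubling passed. Lung cancer cell lines in 1536-well plates were exposed to five √10-spaced library-drug doses for 5 days and counted from 4× Hoechst images in MetaXpress.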

KIN001-266 + Linsitinib = compound: CCN1CCC(CC1)N2C=C(N=N2)CNC3=CC4=C(C(=CN=C4C(=C3)Cl)C#N)NC5=CC(=C(C=C5)F)Cl [KIN001-266] + C[C@]1(O)C[C@@H](c2nc(-c3ccc4ccc(-c5ccccc5)nc4c3)c3c(N)nccn32)C1 [Linsitinib] (partner 1 µM)
Procedure, shortened: as §1

KIN001-266 + Pictilisib = compound: CCN1CCC(CC1)N2C=C(N=N2)CNC3=CC4=C(C(=CN=C4C(=C3)Cl)C#N)NC5=CC(=C(C=C5)F)Cl [KIN001-266] + CS(=O)(=O)N1CCN(Cc2cc3nc(-c4cccc5[nH]ncc45)nc(N4CCOCC4)c3s2)CC1 [Pictilisib] (partner 1 µM)
Procedure, shortened: as §1

KIN001-266 + Lapatinib = compound: CCN1CCC(CC1)N2C=C(N=N2)CNC3=CC4=C(C(=CN=C4C(=C3)Cl)C#N)NC5=CC(=C(C=C5)F)Cl [KIN001-266] + CS(=O)(=O)CCNCc1ccc(-c2ccc3ncnc(Nc4ccc(OCc5cccc(F)c5)c(Cl)c4)c3c2)o1 [Lapatinib] (partner 2 µM)
Procedure, shortened: as §1

KIN001-266 + Bortezomib = compound: CCN1CCC(CC1)N2C=C(N=N2)CNC3=CC4=C(C(=CN=C4C(=C3)Cl)C#N)NC5=CC(=C(C=C5)F)Cl [KIN001-266] + CC(C)C[C@H](NC(=O)[C@H](Cc1ccccc1)NC(=O)c1cnccn1)B(O)O [Bortezomib] (partner 0.002 µM)
Procedure, shortened: as §1

KIN001-266 + Crizotinib = compound: CCN1CCC(CC1)N2C=C(N=N2)CNC3=CC4=C(C(=CN=C4C(=C3)Cl)C#N)NC5=CC(=C(C=C5)F)Cl [KIN001-266] + C[C@@H](Oc1cc(-c2cnn(C3CCNCC3)c2)cnc1N)c1c(Cl)ccc(F)c1Cl [Crizotinib] (partner 1 µM)
Procedure, shortened: as §1

KIN001-266 + AZD7762 = compound: CCN1CCC(CC1)N2C=C(N=N2)CNC3=CC4=C(C(=CN=C4C(=C3)Cl)C#N)NC5=CC(=C(C=C5)F)Cl [KIN001-266] + NC(=O)Nc1cc(-c2cccc(F)c2)sc1C(=O)N[C@H]1CCCNC1 [AZD7762] (partner 0.2 µM); settings: first compound 8 µM
Procedure, shortened: as §1

KIN001-266 + Alpelisib = compound: CCN1CCC(CC1)N2C=C(N=N2)CNC3=CC4=C(C(=CN=C4C(=C3)Cl)C#N)NC5=CC(=C(C=C5)F)Cl [KIN001-266] + Cc1nc(NC(=O)N2CCC[C@H]2C(N)=O)sc1-c1ccnc(C(C)(C)C(F)(F)F)c1 [Alpelisib] (partner 2 µM)
Procedure, shortened: as §1

KIN001-266 + Olaparib = compound: CCN1CCC(CC1)N2C=C(N=N2)CNC3=CC4=C(C(=CN=C4C(=C3)Cl)C#N)NC5=CC(=C(C=C5)F)Cl [KIN001-266] + O=C(c1cc(Cc2n[nH]c(=O)c3ccccc23)ccc1F)N1CCN(C(=O)C2CC2)CC1 [Olaparib] (partner 8 µM)
Procedure, shortened: as §1

KIN001-266 + Navitoclax = compound: CCN1CCC(CC1)N2C=C(N=N2)CNC3=CC4=C(C(=CN=C4C(=C3)Cl)C#N)NC5=CC(=C(C=C5)F)Cl [KIN001-266] + CC1(C)CCC(c2ccc(Cl)cc2)=C(CN2CCN(c3ccc(C(=O)NS(=O)(=O)c4ccc(N[C@H](CCN5CCOCC5)CSc5ccccc5)c(S(=O)(=O)C(F)(F)F)c4)cc3)CC2)C1 [Navitoclax] (partner 0.5 µM)
Procedure, shortened: as §1

Work on NCI-H1623 yielded a relative viability (KIN001-266 + Tozasertib; first compound 0.08 µM) of 0.468, a relative viability (KIN001-266 + Tozasertib; first compound 0.253 µM) of 0.421 and a relative viability (KIN001-266 + Tozasertib; first compound 0.8 µM) of 0.461. The relative viability (KIN001-266 + Tozasertib; first compound 2.53 µM) was 0.432, the relative viability (KIN001-266 + Tozasertib; first compound 8 µM) was 0.422 and the relative viability (KIN001-266 + Dasatinib; first compound 0.08 µM) was 0.579. For the same cell line, the relative viability (KIN001-266 + Dasatinib; first compound 0.253 µM) was 0.514, the relative viability (KIN001-266 + Dasatinib; first compound 0.8 µM) was 0.447 and the relative viability (KIN001-266 + Dasatinib; first compound 2.53 µM) was 0.547. It also gave a relative viability (KIN001-266 + Dasatinib; first compound 8 µM) of 0.475, a relative viability (KIN001-266 + Luminespib; first compound 0.08 µM) of 0.423 and a relative viability (KIN001-266 + Luminespib; first compound 0.253 µM) of 0.624. It also gave a relative viability (KIN001-266 + Luminespib; first compound 0.8 µM) of 0.57, a relative viability (KIN001-266 + Luminespib; first compound 2.53 µM) of 0.475 and a relative viability (KIN001-266 + Luminespib; first compound 8 µM) of 0.536. For the same cell line, the relative viability (KIN001-266 + Phenformin; first compound 0.08 µM) was 0.652, the relative viability (KIN001-266 + Phenformin; first compound 0.253 µM) was 0.603 and the relative viability (KIN001-266 + Phenformin; first compound 0.8 µM) was 0.577. For the same cell line, the relative viability (KIN001-266 + Phenformin; first compound 2.53 µM) was 0.611, the relative viability (KIN001-266 + Phenformin; first compound 8 µM) was 0.526 and the relative viability (KIN001-266 + OSI-027; first compound 0.08 µM) was 0.457. For the same cell line, the relative viability (KIN001-266 + OSI-027; first compound 0.253 µM) was 0.437, the relative viability (KIN001-266 + OSI-027; first compound 0.8 µM) was 0.385 and the relative viability (KIN001-266 + OSI-027; first compound 2.53 µM) was 0.453. The relative viability (KIN001-266 + OSI-027; first compound 8 µM) was 0.433, the relative viability (KIN001-266 + Foretinib; first compound 0.08 µM) was 1.05 and the relative viability (KIN001-266 + Foretinib; first compound 0.253 µM) was 0.865. For the same cell line, the relative viability (KIN001-266 + Foretinib; first compound 0.8 µM) was 0.871, the relative viability (KIN001-266 + Foretinib; first compound 2.53 µM) was 0.894 and the relative viability (KIN001-266 + Foretinib; first compound 8 µM) was 0.875. For the same cell line, the relative viability (KIN001-266; 0.08 µM) was 0.963, the relative viability (KIN001-266; 0.253 µM) was 0.96 and the relative viability (KIN001-266; 0.8 µM) was 0.955. It also gave a relative viability (KIN001-266; 2.53 µM) of 1.07 and a relative viability (KIN001-266; 8 µM) of 1.01.
NCI-H1703 was tested, and the relative viability (KIN001-266 + Linsitinib; first compound 0.08 µM) was 0.786, the relative viability (KIN001-266 + Linsitinib; first compound 0.253 µM) was 0.493 and the relative viability (KIN001-266 + Linsitinib; first compound 0.8 µM) was 1.11. The relative viability (KIN001-266 + Linsitinib; first compound 2.53 µM) was 0.488, the relative viability (KIN001-266 + Linsitinib; first compound 8 µM) was 0.747 and the relative viability (KIN001-266 + Pictilisib; first compound 0.08 µM) was 0.287. The relative viability (KIN001-266 + Pictilisib; first compound 0.253 µM) was 0.23, the relative viability (KIN001-266 + Pictilisib; first compound 0.8 µM) was 0.234 and the relative viability (KIN001-266 + Pictilisib; first compound 2.53 µM) was 0.211. For the same cell line, the relative viability (KIN001-266 + Pictilisib; first compound 8 µM) was 0.223, the relative viability (KIN001-266 + Lapatinib; first compound 0.08 µM) was 1.02 and the relative viability (KIN001-266 + Lapatinib; first compound 0.253 µM) was 0.947. It also gave a relative viability (KIN001-266 + Lapatinib; first compound 0.8 µM) of 1.25, a relative viability (KIN001-266 + Lapatinib; first compound 2.53 µM) of 0.87 and a relative viability (KIN001-266 + Lapatinib; first compound 8 µM) of 0.532. It also gave a relative viability (KIN001-266 + Bortezomib; first compound 0.08 µM) of 0.378, a relative viability (KIN001-266 + Bortezomib; first compound 0.253 µM) of 0.317 and a relative viability (KIN001-266 + Bortezomib; first compound 0.8 µM) of 0.296. For the same cell line, the relative viability (KIN001-266 + Bortezomib; first compound 2.53 µM) was 0.273, the relative viability (KIN001-266 + Bortezomib; first compound 8 µM) was 0.291 and the relative viability (KIN001-266 + Crizotinib; first compound 0.08 µM) was 0.965. It also gave a relative viability (KIN001-266 + Crizotinib; first compound 0.253 µM) of 0.675, a relative viability (KIN001-266 + Crizotinib; first compound 0.8 µM) of 0.63 and a relative viability (KIN001-266 + Crizotinib; first compound 2.53 µM) of 0.457. For the same cell line, the relative viability (KIN001-266 + Crizotinib; first compound 8 µM) was 0.371, the relative viability (KIN001-266 + AZD7762) was 0.112 and the relative viability (KIN001-266 + Alpelisib; first compound 0.08 µM) was 0.419. For the same cell line, the relative viability (KIN001-266 + Alpelisib; first compound 0.253 µM) was 0.307, the relative viability (KIN001-266 + Alpelisib; first compound 0.8 µM) was 0.31 and the relative viability (KIN001-266 + Alpelisib; first compound 2.53 µM) was 0.289. It also gave a relative viability (KIN001-266 + Alpelisib; first compound 8 µM) of 0.325, a relative viability (KIN001-266 + Olaparib; first compound 0.08 µM) of 0.451 and a relative viability (KIN001-266 + Olaparib; first compound 0.253 µM) of 0.386. It also gave a relative viability (KIN001-266 + Olaparib; first compound 0.8 µM) of 0.435, a relative viability (KIN001-266 + Olaparib; first compound 2.53 µM) of 0.391 and a relative viability (KIN001-266 + Olaparib; first compound 8 µM) of 0.401. It also gave a relative viability (KIN001-266 + Navitoclax; first compound 0.08 µM) of 0.987, a relative viability (KIN001-266 + Navitoclax; first compound 0.253 µM) of 1.08 and a relative viability (KIN001-266 + Navitoclax; first compound 0.8 µM) of 1.13. It also gave a relative viability (KIN001-266 + Navitoclax; first compound 2.53 µM) of 0.875, a relative viability (KIN001-266 + Navitoclax; first compound 8 µM) of 0.632 and a relative viability (KIN001-266 + Foretinib; first compound 0.08 µM) of 0.367. The relative viability (KIN001-266 + Foretinib; first compound 0.8 µM) was 0.37, the relative viability (KIN001-266 + Foretinib; first compound 2.53 µM) was 0.359 and the relative viability (KIN001-266 + Foretinib; first compound 8 µM) was 0.366. It also gave a relative viability (KIN001-266; 0.08 µM) of 1.06, a relative viability (KIN001-266; 0.253 µM) of 0.873 and a relative viability (KIN001-266; 0.8 µM) of 0.954. The relative viability (KIN001-266; 2.53 µM) was 0.789 and the relative viability (KIN001-266; 8 µM) was 0.806.
